For data set [1], the system named is Escherichia coli. The experiment in a line: Antibacterial activity against Escherichia coli MTCC 722 at 10 ug/ml by disk diffusion method. It counts as functional. As to conditions: read-out: IZ. In general terms: A growth-free zone around the sample is the usual read-out of agar diffusion tests.
Data set [2] relates to Mus musculus. Put plainly: Acute toxicity in Mus musculus (mouse) at 300 mg/kg. It counts as organism-based. Also noted: dose 300 mg/kg. As to conditions: in vivo.
The subject of data set [3] is Pseudomonas aeruginosa. Put plainly: Ratio of compound IZ to amikacin IZ for Pseudomonas aeruginosa […] at 10 ug/ml by disk diffusion method. It counts as functional.
Data set [4] relates to Pseudomonas aeruginosa. The experiment in a line: Antibacterial activity against Pseudomonas aeruginosa […] at 10 ug/ml by disk diffusion method. It counts as functional. The conditions noted are these: read-out: IZ.
Data set [5] concerns Candida albicans. Put plainly: Antifungal activity against Candida albicans MTCC 227 at 10 ug/ml by disk diffusion method. It counts as functional. As to conditions: read-out: IZ.
Data set [6] concerns Streptococcus pyogenes. The experiment in a line: Ratio of compound IZ to amikacin IZ for Streptococcus pyogenes MTCC 389 at 10 ug/ml by disk diffusion method. It counts as functional.
Data set [7] concerns Candida albicans. The experiment in a line: Ratio of compound IZ to nystatin IZ for Candida albicans MTCC 227 at 10 ug/ml by disk diffusion method. It counts as functional.
For data set [8], the system named is Staphylococcus aureus. Put plainly: Ratio of compound IZ to amikacin IZ for Staphylococcus aureus MTCC 96 at 10 ug/ml by disk diffusion method. It counts as functional.
Data set [9] concerns Escherichia coli. The experiment in a line: Ratio of compound IZ to amikacin IZ for Escherichia coli MTCC 722 at 10 ug/ml by disk diffusion method. It counts as functional.
Data set [10] relates to Staphylococcus aureus. Put plainly: Antibacterial activity against Staphylococcus aureus MTCC 96 at 10 ug/ml by disk diffusion method. It counts as functional. As to conditions: read-out: IZ.
Data set [11] has as its system Streptococcus pyogenes. Put plainly: Antibacterial activity against Streptococcus pyogenes MTCC 389 at 10 ug/ml by disk diffusion method. It counts as functional. The conditions noted are these: read-out: IZ.

The values that follow come from ChEMBL document CHEMBL3045015, “Synthesis and physiological evaluation of new N-nitroso-2,6-dicarbethoxy-3,5-diaryltetrahydro-1,4-thiazine-1,1-dioxides” (Med Chem Res, 2012).

Consider `CCOC(=O)C1C(c2ccc([N+](=O)[O-])cc2)N(N=O)C(c2ccc([N+](=O)[O-])cc2)C(C(=O)OCC)S1(=O)=O` (stereo not drawn), for which the zone of inhibition at 10 µg/mL in data set [1] was 17 mm; in data set [4], 11 mm; in [5], 12 mm; in data set [10], 13 mm; in data set [11] it was 17 mm. The Activity result in [2] was “Non-toxic”. Also, the Ratio in [3] worked out at 0.65; in [6], 0.85; in data set [7], 0.63; in data set [8], 0.72; in data set [9], 1.
Take `CCOC(=O)C1C(c2cccc([N+](=O)[O-])c2)N(N=O)C(c2cccc([N+](=O)[O-])c2)C(C(=O)OCC)S1(=O)=O` (stereo not drawn): the zone of inhibition at 10 µg/mL in [1] is 14 mm; in data set [4], 15 mm; in data set [5] it was 13 mm; in data set [10], 12 mm; in [11], 9 mm. Also, the Activity entry in data set [2] is given as “Non-toxic”. Moreover, the Ratio in [3] was 0.88; in [6], 0.45; in [7], 0.69; in [8], 0.67; in data set [9], 0.82.
On to `CCOC(=O)C1C(c2cccnc2)N(N=O)C(c2cccnc2)C(C(=O)OCC)S1(=O)=O` (stereo not drawn), for which the zone of inhibition at 10 µg/mL in data set [1] is 12 mm; in data set [4], 11 mm; in data set [5], 15 mm; in data set [10], 14 mm; in [11] it was 8 mm. In addition, in [2], the Activity entry is listed as “Non-toxic”. Besides, the Ratio in [3] is reported as 0.65; in [6], 0.4; in data set [7], 0.79; in data set [8], 0.78; in data set [9], 0.71.
